From patent US20120178765A1, “NOVEL GLUCOKINASE ACTIVATORS AND PROCESSES FOR THE PREPARATION THEREOF” (YUHAN CORPORATION, priority 2009, published 2012) come the findings set out here.

Counter-ions that a name gives are not always drawn.

The target in the test is T1, Glucokinase (Homo sapiens, UniProt P35557).
T1 construct: purchased ProteinOne Inc
T1 sequence (P35557 1-465): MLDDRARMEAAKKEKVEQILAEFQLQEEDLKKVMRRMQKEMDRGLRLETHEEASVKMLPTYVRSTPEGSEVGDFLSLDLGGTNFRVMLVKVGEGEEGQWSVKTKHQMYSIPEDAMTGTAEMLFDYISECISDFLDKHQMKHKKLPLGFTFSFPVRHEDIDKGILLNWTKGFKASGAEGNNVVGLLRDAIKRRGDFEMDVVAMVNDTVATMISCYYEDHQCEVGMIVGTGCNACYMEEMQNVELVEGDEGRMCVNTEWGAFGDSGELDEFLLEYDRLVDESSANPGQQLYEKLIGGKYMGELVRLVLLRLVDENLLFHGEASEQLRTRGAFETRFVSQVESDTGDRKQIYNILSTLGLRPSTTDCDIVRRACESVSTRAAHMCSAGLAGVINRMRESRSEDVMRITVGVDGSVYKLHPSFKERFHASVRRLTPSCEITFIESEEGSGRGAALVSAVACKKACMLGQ
In words: Glucokinase activation assay (NADPH absorbance at 340 nm). In kind it is biochemical. The note with it: glucokinase (ProteinOne Inc.), 5 mM D(+)-glucose, 24° C., 90 minutes. Summed up: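 Glucokinase (100 ng/uL) coupled to G6PDH in 25 mM HEPES pH 7 with 5 mM D(+)-glucose, 1 mM ATP, 1 mM NADP; compounds added.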

“3-[2-(2,3-difluorophenyl)ethyl]-5-(2-methoxy-(1S)-methyl-ethoxy)-N-(1-methyl-1H-pyrazol-3-yl)-benzamide [Example 95]” displayed a half-maximal effective concentration (EC50) of 418 nM.

“3-[2-(2,4-dimethoxyphenyl)ethyl]-5-(2-methoxy-(1S)-methyl-ethoxy)-N-(1-methyl-1H-pyrazol-3-yl)-benzamide [Example 104]” yielded a half-maximal effective concentration (EC50) of 223 nM.

Molecule “3-[trans-2-(2,3-dimethoxyphenyl)vinyl]-5-(2-methoxy-(1S)-methyl-ethoxy)-N-(thiazol-2-yl)-benzamide [Example 17]” had an EC50 of 50.4 nM.

“3-[trans-2-(2,3-difluorophenyl)vinyl]-5-(2-methoxy-(1S)-methyl-ethoxy)-N-(thiazol-2-yl)-benzamide [Example 9]” showed an EC50 of 27.5 nM.

With “3-[trans-2-(4-methoxyphenyl)vinyl]-5-(2-methoxy-(1S)-methyl-ethoxy)-N-(1-methyl-1H-pyrazol-3-yl)-benzamide [Example 41]”, the EC50 was 245 nM.

For the molecule “3-[trans-2-(2-methoxyphenyl)vinyl]-5-(2-methoxy-(1S)-methyl-ethoxy)-N-(pyrazin-2-yl)-benzamide [Example 48]”, a half-maximal effect (EC50) was put at 281 nM.

For `COC[C@H](C)Oc1cc(/C=C/c2cccc([N+](=O)[O-])c2)cc(C(=O)Nc2ccc(C(=O)O)cn2)c1` [Example 75, 3-[trans-2-(3-nitrophenyl)vinyl]-5-(2-methoxy-(1S)-methyl-ethoxy)-N-(nicotinic acid-6-yl)-benzamide], a half-maximal response (EC50) required 165 nM.

In turn, “3-[trans-2-(2,3-dimethoxyphenyl)vinyl]-5-(2-methoxy-(1S)-methyl-ethoxy)-N-(5-fluorothiazol-2-yl)-benzamide [Example 28]” had an EC50 of 118 nM.

Consider `COC[C@H](C)Oc1cc(/C=C/c2ccccc2[N+](=O)[O-])cc(C(=O)Nc2nccs2)c1` [Example 13, 3-[trans-2-(2-nitrophenyl)vinyl]-5-(2-methoxy-(1S)-methyl-ethoxy)-N-(thiazol-2-yl)-benzamide], for which it took 12.7 nM to reach a half-maximal effect (EC50).

As for “3-[2-(2,6-difluorophenyl)ethyl]-5-(2-methoxy-(1S)-methyl-ethoxy)-N-(thiazol-2-yl)-benzamide [Example 87]”, the EC50 was determined as 34.4 nM.

Molecule “3-{2-[4-(3-ethyl-thio-ureido)phenyl]ethyl}-5-(2-methoxy-(1S)-methyl-ethoxy)-N-(thiazol-2-yl)-benzamide [Example 146]” gave an EC50 of 454 nM.

As for `COC[C@H](C)Oc1cc(/C=C/c2cc(F)ccc2F)cc(C(=O)Nc2ccc(C(=O)O)cn2)c1` [Example 80, 3-[trans-2-(2,5-difluorophenyl)vinyl]-5-(2-methoxy-(1S)-methyl-ethoxy)-N-(nicotinic acid-6-yl)-benzamide], the EC50 is 134 nM.

In turn, “3-[2-(2-benzenesulfonylaminophenyl)ethyl]-5-(2-methoxy-(1S)-methyl-ethoxy)-N-(thiazol-2-yl)-benzamide [Example 115]” yielded an EC50 of 210 nM.

In turn, `CC(C)COc1cc(/C=C/c2c(F)cccc2F)cc(C(=O)Nc2nccs2)c1` [Example 72, 3-[trans-2-(2,6-difluorophenyl)vinyl]-5-isobutoxy-N-(thiazol-2-yl)-benzamide] had a 50% effective concentration (EC50) of 121 nM.

“3-[trans-2-(3-fluorophenyl)vinyl]-5-(2-methoxy-(1S)-methyl-ethoxy)-N-(thiazol-2-yl)-benzamide [Example 7]” displayed an EC50 of 48.4 nM.

Turning to “3-[trans-2-(2,3,5-trifluorophenyl)vinyl]-5-(2-methoxy-(1S)-methyl-ethoxy)-N-(5-fluorothiazol-2-yl)-benzamide [Example 27]”, a half-maximal response (EC50) required 86.6 nM.

“3-[trans-2-(4-nitrophenyl)vinyl]-5-(2-methoxy-(1S)-methyl-ethoxy)-N-(thiazol-2-yl)-benzamide [Example 15]” yielded a concentration for a half-maximal effect (EC50) of 127 nM.

In turn, “3-[trans-2-(2,4-difluorophenyl)vinyl]-5-(2-methoxy-(1S)-methyl-ethoxy)-N-(pyrazin-2-yl)-benzamide [Example 56]” registered an EC50 of 301 nM.

Turning to `CC(C)COc1cc(/C=C/c2ccccc2F)cc(C(=O)Nc2nccs2)c1` [Example 70, 3-[trans-2-(2-fluorophenyl)vinyl]-5-isobutoxy-N-(thiazol-2-yl)-benzamide], it took 102 nM to reach a half-maximal effect (EC50).

Turning to “3-[trans-2-(2-fluorophenyl)vinyl]-5-(2-methoxy-(1S)-methyl-ethoxy)-N-(5-fluorothiazol-2-yl)-benzamide [Example 22]”, the EC50 was determined as 65.6 nM.

As for `COC[C@H](C)Oc1cc(/C=C/c2cc(F)ccc2F)cc(C(=O)Nc2ccc(C(=O)OC)cn2)c1` [Example 68, 3-[trans-2-(2,5-difluorophenyl)vinyl]-5-(2-methoxy-(1S)-methyl-ethoxy)-N-(nicotinic acid-3-methyl ester-6-yl)-benzamide], a half-maximal response (EC50) required 355 nM.

For the molecule “3-[2-(2-methanesulfonylaminophenyl)ethyl]-5-(2-methoxy-(1S)-methyl-ethoxy)-N-(thiazol-2-yl)-benzamide [Example 113]”, the EC50 is 72.1 nM.

Consider “3-[2-(3-benzoylaminophenyl)ethyl]-5-(2-methoxy-(1S)-methyl-ethoxy)-N-(thiazol-2-yl)-benzamide [Example 124]”, for which the 50% effective concentration (EC50) turned out to be 281 nM.

Turning to `COc1ccc(/C=C/c2cc(OCC(C)C)cc(C(=O)Nc3nccs3)c2)cc1OC` [Example 4, 3-[trans-2-(3,4-dimethoxyphenyl)vinyl]-5-isobutoxy-N-(thiazol-2-yl)-benzamide], the half-maximal effective concentration (EC50) was 222 nM.

“3-[trans-2-(4-fluorophenyl)vinyl]-5-(2-methoxy-(1S)-methyl-ethoxy)-N-(pyrazin-2-yl)-benzamide [Example 52]” returned an EC50 of 420 nM.

`COC[C@H](C)Oc1cc(/C=C/c2c(F)cccc2F)cc(C(=O)Nc2ccc(C(=O)O)cn2)c1` [Example 81, 3-[trans-2-(2,6-difluorophenyl)vinyl]-5-(2-methoxy-(1S)-methyl-ethoxy)-N-(nicotinic acid-6-yl)-benzamide] had an EC50 of 89.8 nM.

As to “3-[trans-2-(2,3-difluorophenyl)vinyl]-5-(2-methoxy-(1S)-methyl-ethoxy)-N-(1-methyl-1H-pyrazol-3-yl)-benzamide [Example 34]”, a half-maximal effect (EC50) was put at 132 nM.

As for “3-[trans-2-(2,3,5-trifluorophenyl)vinyl]-5-(2-methoxy-(1S)-methyl-ethoxy)-N-(thiazol-2-yl)-benzamide [Example 18]”, a half-maximal response (EC50) required 126 nM.

Turning to “3-[trans-2-(4-fluorophenyl)vinyl]-5-(2-methoxy-(1S)-methyl-ethoxy)-N-(1-methyl-1H-pyrazol-3-yl)-benzamide [Example 39]”, the EC50 is 119 nM.

In turn, “3-[trans-2-(2-nitrophenyl)vinyl]-5-(2-methoxy-(1S)-methyl-ethoxy)-N-(5-fluorothiazol-2-yl)-benzamide [Example 19]” gave an EC50 of 52.1 nM.

“3-[2-(2-methoxyphenyl)ethyl]-5-(2-methoxy-(1S)-methyl-ethoxy)-N-(pyrazin-2-yl)-benzamide [Example 106]” showed an EC50 of 304 nM.

In the case of “3-[2-(2-fluorophenyl)ethyl]-5-(2-methoxy-(1S)-methyl-ethoxy)-N-(thiazol-2-yl)-benzamide [Example 84]”, the midpoint of the response, the EC50, lay at 41.6 nM.

`CCOC(=O)CC(=O)Nc1ccc(CCc2cc(O[C@@H](C)COC)cc(C(=O)Nc3nccs3)c2)cc1` [Example 135, 3-{2-[4-(malonamic acid ethyl ester)phenyl]ethyl}-5-(2-methoxy-(1S)-methyl-ethoxy)-N-(thiazol-2-yl)-benzamide] had an EC50 of 204 nM.

“3-[2-(2-fluorophenyl)ethyl]-5-(2-methoxy-(1S)-methyl-ethoxy)-N-(pyrazin-2-yl)-benz amide [Example 107]” yielded an EC50 of 333 nM.

In turn, “3-[trans-2-(3,4-dimethoxyphenyl)vinyl]-5-(2-methoxy-(1S)-methyl-ethoxy)-N-(5-fluorothiazol-2-yl)-benzamide [Example 30]” displayed an EC50 of 132 nM.

In turn, `CC(C)COc1cc(/C=C/c2ccc(F)cc2)cc(C(=O)Nc2nccs2)c1` [Example 2, 3-[trans-2-(4-fluorophenyl)vinyl]-5-isobutoxy-N-(thiazol-2-yl)-benzamide] gave an EC50 of 172 nM.

Consider “3-{2-[3-(4-chlorobenzoylamino)phenyl]ethyl}-5-(2-methoxy-(1S)-methyl-ethoxy)-N-(t hiazol-2-yl)-benzamide [Example 126]”, for which the 50% effective concentration (EC50) is 364 nM.

In turn, “3-[2-(2,4-dimethoxyphenyl)ethyl]-5-(2-methoxy-(1S)-methyl-ethoxy)-N-(pyrazin-2-yl)-benzamide [Example 105]” showed an EC50 of 298 nM.

Consider `COC[C@H](C)Oc1cc(CCc2ccccc2N)cc(C(=O)Nc2nccs2)c1` [Example 110, 3-[2-(2-aminophenyl)ethyl]-5-(2-methoxy-(1S)-methyl-ethoxy)-N-(thiazol-2-yl)-benzamide hydrochloride], for which the EC50 is 68.2 nM.

Molecule `COC[C@H](C)Oc1cc(/C=C/c2ccccc2[N+](=O)[O-])cc(C(=O)Nc2ccc(C(=O)OC)cn2)c1` [Example 62, 3-[trans-2-(2-nitrophenyl)vinyl]-5-(2-methoxy-(1S)-methyl-ethoxy)-N-(nicotinic acid-3-methyl ester-6-yl)-benzamide] returned an EC50 of 106 nM.
